Where “and” joins values, the source holds several entries; their conditions need not be identical. Equal values may be shown once.
System: A/PR/8/34 virus
Experiment: Immunofluorescence staining of viral NP in influenza A virus-infected MDCK cells
Settings: for NP/DAPI (%) ave: average of 9 wells; for NP/DAPI (%): single well
Description: MDCK cells were seeded on a 96-well plate at 1 × 10^4 cells/well. […] Each mixture was added to the cells at 37°C in the presence of 5% CO2. […] After influenza A viral infection for 24 h, the cells were fixed with 4% paraformaldehyde in phosphate-buffered saline (PBS) for 30 min at 4°C and subsequently permeabilized by the addition of 0.3% Triton X-100 for 20 min at 25°C. A mouse primary antibody was used to detect the NP of A/PR/8/34 or A/WSN/33 viruses (FluA-NP 4F1; SouthernBiotech, AL, USA). Alexa Fluor488-conjugated goat anti-mouse IgG (H + L) antibody (Thermo Fisher Scientific) was used as the secondary antibody. Cell nuclei were then stained using diamidino-2-phenylindole (DAPI) (Thermo Fisher Scientific). Wells were photographed using a fluorescence microscope (BIOREVO BZ-X700; Keyence, Osaka, Japan). The proportion of influenza A NP-positive cells per DAPI-positive cells was calculated based on measurements recorded using BZ-X Analyzer software (Keyence).

C=C[C@@](C)(/C=C/c1ccc(O)cc1)CCC=C(C)C [(+)-(S)-bakuchiol, reference compound]
percentage of influenza A NP-positive cells relative to DMSO (A/PR/8/34, 3.1 μM, 24 h, Fig 4B): significantly reduced
NP/DAPI (%) ave (A/PR/8/34, 3.13 uM): 3.314%
NP/DAPI (%) ave (A/PR/8/34, 6.25 uM): 1.176%
percentage of influenza A NP-positive cells compared with the 5-treatment (A/PR/8/34, 6.3 μM, 24 h, Fig 4B): significantly reduced
NP/DAPI (%) ave (A/PR/8/34, 12.5 uM): 0.5619%
NP/DAPI (%) (A/PR/8/34, 12.5 uM, listed as (+)-S-Bakuchiol): 1.274% and 0.625% and 0.6742% and 0.2454% and 0.2653% and 0.5128% and 0.5703%
NP/DAPI (%) (A/PR/8/34, 12.5 uM, listed as (+)-S-bakuchiol): 0.4184%
NP/DAPI (%) ave (A/PR/8/34, 25 uM): 0.5226%
percentage of influenza A NP-positive cells relative to DMSO (A/PR/8/34, 6.3–12.5 μM, 24 h, Fig 4B): significantly reduced
IC50 (Influenza A virus, PR/8, MDCK, read-out: half maximal (50%) inhibitory concentration (IC50)): 2100 ± 1200 nM

— PMC7997032, “Organic synthesis and anti-influenza A virus activity of cyclobakuchiols A, B, C, and D” (PLoS ONE, 2021)
